Test system: Cytotoxicity
Assay: STAT3 inhibitors, late-stage profile, late-stage follow-up, cell-based, STAT1 panel, qPCR, cytotoxicity (AID 2078)
Conditions: STAT3/STAT1 inhibition panel, cell reporter assay

## c1ccc(CC2CCN(c3ncnc4sccc34)CC2)cc1
  CC50: > 55.7 µM

— PubChem BioAssay AID2078 (The Scripps Research Institute Molecular Screening Center, 2009)
